Measurements from patent EP0173480A2, “The antiviral use of phyllanthostatins” (priority 1984, dated 1986).
Converted amounts (≈) assume the structure as drawn. Like-named read-outs stand apart in the source and are kept apart here.

Columns and labels:
[1] = Drug toxicity in non-infected female mice treated intravaginally; assay type: in vivo; details: compared with saline
Procedure: Where indicated, non-infected mice (5 per group) were treated identically (3 times daily x 5) in order to determine drug toxicity. The groups of mice were weighed at the indicated times.
Non-infected female mice were treated intravaginally with the same drugs, at the same concentrations and with a schedule (3 x daily x 5 days). Animal weights were determined at the time of initiation of treatment (day 0), and again on day 4 (after 12 treatments were given), and again after treatments had been concluded on days 7, 11 and 15. The weights of the groups of mice treated with placebo or the high drug concentrations are shown on Table 3, and the differences in weights in Figure 4. […] Weight gains in mice treated with phyllanthoside (1 mg/ml) were slightly less than that of the above compounds, but by day 15, the mice had the same gain as those treated with phyllanthostatin I, saline or zinc acetate.

[2] = test system: herpes simplex virus type 1 (HSV-1, McIntyre); test: Inhibition of virus replication, virus yield by plaque method; assay type: cell-based
coxsackie A21 = assay type: cell-based; details: ML cells
HSV-2 = test: Cell culture antiviral activity, agar-well zones of cytotoxicity / plaque inhibition; details: 50 pg of test compound (so in the source)
Vacc. = details: 50 pg of test compound (so in the source)
Coe = test: Cell culture antiviral activity, agar-well zones of cytotoxicity / plaque inhibition; details: 50 pg of test compound (so in the source)
[3] = test system: Herpes Simplex virus type 2 (HSV-2, strain 35D); test: Genital HSV-2 infection of female mice, virus titers in vaginal secretions; assay type: in vivo; details: for Mean virus titer in swabs of mice which shed virus / Nv/Nt, swabs with virus/total swabs: 8.0 x 10^4 PFU;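 on Mean virus titer in swabs of mice which shed virus: titer expressed as log PFU per ml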
[4] = test system: Herpes Simplex virus type 2 (HSV-2, strain 35D); test: Genital HSV-2 infection of female mice, intravaginal treatment, survival; assay type: in vivo; details: for mice survived (of 14): study of Table 3; for %S (percent survivors) / MDD (mean day of death): N 14; for deaths: zinc acetate (0.1M)
E.R. = details: 50 pg of test compound (so in the source)
HA-1 = test: Cell culture antiviral activity, agar-well zones of cytotoxicity / plaque inhibition; details: 50 pg of test compound (so in the source)
PR-8 = details: 50 pg of test compound (so in the source)
[5] = test system: coxsackie B3 virus (Nancy Strain); test: Inhibition of virus replication, virus yield in Vero cells; assay type: cell-based
HSV-1 = test: Cell culture antiviral activity, agar-well zones of cytotoxicity / plaque inhibition; details: 50 pg of test compound (so in the source)
[6] = test system: VSV (vesicular stomatitis virus); assay type: cell-based; details: Vero cells; higher drug concentrations (5 and 50 µg/ml) compared with 0.5
[7] = test system: herpes simplex virus type 2 (HSV-2, MS); test: Inhibition of virus replication, virus yield by plaque method; assay type: cell-based; details: for HSV-2 virus yield: Vero cells
[8] = Cytotoxicity of drugs, absorbance at 260 nm of lysed cell monolayers; details: monkey, vero cells, drug concentration which reduces the OD260 of lysed cells by 50%
Vero cells = test: as above
[9] = therapeutic index with ID50 Vero 72 hrs.
[10] = therapeutic index with ID50 Vero 91 hrs.
[11] = higher drug concentrations (5 and 50 µg/ml) compared with 0.5
[12] = day 1 after HSV-2 inoc., 0.5 mg/ml
[13] = day 1 after HSV-2 inoc., 1 mg/ml
[14] = day 2 after HSV-2 inoc., 0.5 mg/ml
[15] = day 2 after HSV-2 inoc., 1 mg/ml
[16] = day 3 after HSV-2 inoc., 0.5 mg/ml
[17] = day 3 after HSV-2 inoc., 1 mg/ml
[18] = day 4 after HSV-2 inoc., 0.5 mg/ml
[19] = day 4 after HSV-2 inoc., 1 mg/ml
[20] = day 7 after HSV-2 inoc., 0.5 mg/ml
[21] = day 7 after HSV-2 inoc., 1 mg/ml
[22] = 8.0 x 10^3 PFU/0.1 ml, mg/ml cell empty (1 mg/ml in upper section)
[23] = 8.0 x 10^4 PFU/0.1 ml, 1 mg/ml intravaginally
[24] = 8.0 x 10^3 PFU/0.1 ml, mg/ml cell empty (44 mg/ml in upper section)
[25] = 8.0 x 10^4 PFU/0.1 ml, 44 mg/ml intravaginally

Compound: CC(=O)O[C@@H]1[C@@H](O)[C@H](O[C@H]2[C@H](OC(=O)[C@H]3CC[C@@H]4[C@H](C3)O[C@@]3(C[C@H](OC(=O)/C=C/c5ccccc5)[C@H](C)CO3)[C@]43CO3)O[C@H](C)[C@@H](O)[C@@H]2OC(C)=O)O[C@H](C)[C@H]1O [Phyllanthoside]
- weight gains ([1]; 1 mg/ml intravaginally 3 x daily x 5 days, zinc acetate groups, same gain by day 15): slightly less
- HSV-1 virus yield ([2]; Vero cells, higher drug concentrations (5 and 50 µg/ml) compared with 0.5): further reductions in all virus yields
- T - ID50/ED90, McIntyre [2, 9]: 0.6402
- T - ID50/ED90, McIntyre [2, 10]: 1.9115
- coxsackie A21 virus yield (coxsackie A21; 5 µg/ml (below 5 µg per ml)): inhibitory for both viruses
- coxsackie A21 virus yield (coxsackie A21; below 5 µg per ml (i.e., 0.5 or 1), study of b36): reduced titers of coxsackie A21
- coxsackie A21 virus yield (coxsackie A21; [11]): further reductions in all virus yields
- zone of cytotoxicity (HSV-2; first figure of the cell): 3
- zone of antiviral activity (viral plaque inhibition) (HSV-2; second figure of the cell): 4
- zone of cytotoxicity (Vacc.; first figure of the cell): 4/4
- zone of antiviral activity (viral plaque inhibition) (Vacc.; second figure of the cell): 4/4
- zone of cytotoxicity (Coe; first figure of the cell): 3
- zone of antiviral activity (viral plaque inhibition) (Coe; second figure of the cell): 0
- mean titer less than placebo treated groups ([3]; 0.5 mg/ml, after the first 3 days): about 0.6 logs
- mean titer less than placebo treated groups ([3]; 0.5 mg/ml, first 3 days): about 1 log
- mean titer less than saline or DMSO-saline treated groups ([3]; 1 mg/ml, day 4): about 0.6 logs
- mean titer less than saline or DMSO-saline treated groups ([3]; 1 mg/ml, days 1, 2 and 3): about one
- Mean virus titer in swabs of mice which shed virus [3, 12]: 2.46 log PFU/ml
- Nv/Nt, swabs with virus/total swabs [3, 12]: 5/10
- Nv/Nt, swabs with virus/total swabs ([3]; day 1 after HSV-2 inoc., 0.5 mg/ml, listed as phyllanthoside): 5
- Mean virus titer in swabs of mice which shed virus [3, 13]: 2.83 log PFU/ml
- Nv/Nt, swabs with virus/total swabs [3, 13]: 2/10
- Nv/Nt, swabs with virus/total swabs ([3]; day 1 after HSV-2 inoc., 1 mg/ml, listed as phyllanthoside): 2
- Mean virus titer in swabs of mice which shed virus [3, 14]: 3.45 log PFU/ml
- Nv/Nt, swabs with virus/total swabs [3, 14]: 7/10
- Mean virus titer in swabs of mice which shed virus [3, 15]: 2.98 log PFU/ml
- Nv/Nt, swabs with virus/total swabs [3, 15]: 3/10
- Nv/Nt, swabs with virus/total swabs ([3]; day 2 after HSV-2 inoc., 1 mg/ml, listed as phyllanthoside): 3
- Mean virus titer in swabs of mice which shed virus [3, 16]: 3.41 log PFU/ml
- Nv/Nt, swabs with virus/total swabs [3, 16]: 8/10
- Mean virus titer in swabs of mice which shed virus [3, 17]: 3.11 log PFU/ml
- Nv/Nt, swabs with virus/total swabs [3, 17]: 5/10
- Nv/Nt, swabs with virus/total swabs ([3]; day 3 after HSV-2 inoc., 1 mg/ml, listed as phyllanthoside): 5
- Mean virus titer in swabs of mice which shed virus [3, 18]: 3.73 log PFU/ml
- Nv/Nt, swabs with virus/total swabs [3, 18]: 8/10
- Mean virus titer in swabs of mice which shed virus [3, 19]: 3.72 log PFU/ml
- Nv/Nt, swabs with virus/total swabs [3, 19]: 4/10
- Nv/Nt, swabs with virus/total swabs ([3]; day 4 after HSV-2 inoc., 1 mg/ml, listed as phyllanthoside): 4
- Mean virus titer in swabs of mice which shed virus [3, 20]: 3.98 log PFU/ml
- Nv/Nt, swabs with virus/total swabs [3, 20]: 2/4
- Mean virus titer in swabs of mice which shed virus [3, 21]: 2.94 log PFU/ml
- Nv/Nt, swabs with virus/total swabs [3, 21]: 3/8
- mice survived (of 14) ([4]; 8.0 x 10^3 PFU in 0.1 ml): 13
- %S (percent survivors) [4, 22]: 93%
- MDD (mean day of death) [4, 22]: 14.0 days
- mice survived (of 14) ([4]; 8.0 x 10^4 PFU in 0.1 ml): 9
- %S (percent survivors) [4, 23]: 64%
- MDD (mean day of death) [4, 23]: 9.0 days
- protection of mice from lethal genital HSV-2 infection, summary in words ([4]; intravaginally from one hour after inoculation, 3 times daily): most effective of the compounds
- mice survived ([4]; second study, 8.0 x 10^4 PFU in 0.1 ml, 0.5 mg/ml): 1
- mice protected from death (of 10) ([4]; second study, 8.0 x 10^4 PFU in 0.1 ml, 1 mg/ml): 7
- zone of cytotoxicity (E.R.; first figure of the cell): 2 (2 - 20-30 mm)
- zone of antiviral activity (viral plaque inhibition) (E.R.; second figure of the cell): 4
- zone of cytotoxicity (HA-1; first figure of the cell): 4
- zone of antiviral activity (viral plaque inhibition) (HA-1; second figure of the cell): 0
- zone of cytotoxicity (PR-8; first figure of the cell): 3/3
- zone of antiviral activity (viral plaque inhibition) (PR-8; second figure of the cell): 3/3
- coxsackie B3 virus yield ([5]; 5 µg per ml): inhibitory for both viruses
- coxsackie B3 virus yield ([5]; below 5 µg per ml (i.e., 0.5 or 1)): unaffected
- zone of cytotoxicity (HSV-1; first figure of the cell): 4/4
- zone of antiviral activity (viral plaque inhibition) (HSV-1; second figure of the cell): 4/4
- VSV virus yield [6]: further reductions in all virus yields
- ED90 MS ([7]; HSV-2 in Vero cells, drug concentration reducing virus titers by 90%, 1440 min): 1.4958 µg per ml
- EC90 ([7]; Human alphaherpesvirus 2, Vero, 24 h, read-out: ED90 MS): 1.5 µg/mL (≈ 1.86 µM)
- HSV-2 virus yield ([7]; 0.5 µg/ml): most susceptible virus to inhibition
- HSV-2 virus yield [7, 11]: further reductions in all virus yields
- T - ID50/ED90, MS [7, 9]: 0.7989
- T - ID50/ED90, MS [7, 10]: 2.3854
- CC50 at 72 h ([8]; ID50 Vero 72 hrs., 72 hours): 1200 µg/mL (≈ 1480 µM)
- CC50 at 91 h ([8]; ID50 Vero 91 hrs., table head 91 hrs., b38 96 hours): 3.57 µg/mL (≈ 4.44 µM)
- OD260 of lysed cells (Vero cells; Vero cells, 0.5 µg per ml, greatly increased OD260 after 72 hours): decreased the OD260 during 72 hours
- cell growth (OD260 of lysed cells) (Vero cells; Vero cells, 1 µg per ml, OD260 increased dramatically at 96 hours): cell growth was suppressed to a greater extent during the first 72 hours
- ID50 Vero 91 hrs. (Vero cells; drug concentration which reduces the OD260 of lysed cells by 50%, table head 91 hrs., b38 96 hours, 5460 min): 3.568 ug per ml

Compound: zinc acetate [Zn(OAc)2, reference compound]
- weight changes ([1]; zinc acetate intravaginally 3 x daily x 5 days): essentially the same
- Mean virus titer in swabs of mice which shed virus ([3]; day 1 after HSV-2 inoc., Zn(OAc)2 concentration not given, value in brackets): (2.60) log PFU/ml
- Nv/Nt, swabs with virus/total swabs ([3]; day 1 after HSV-2 inoc., Zn(OAc)2 concentration not printed): 1/10
- Nv/Nt, swabs with virus/total swabs ([3]; day 1 after HSV-2 inoc., Zn(OAc)2 concentration not printed, listed as zinc acetate): One of 10
- Nv/Nt, swabs with virus/total swabs ([3]; day 2 after HSV-2 inoc., Zn(OAc)2 concentration not given): 1/10
- Mean virus titer in swabs of mice which shed virus ([3]; day 2 after HSV-2 inoc., Zn(OAc)2 concentration not given, value in brackets): (3.54) log PFU/ml
- Nv/Nt, swabs with virus/total swabs ([3]; day 3 after HSV-2 inoc., Zn(OAc)2 concentration not given): 1/10
- Mean virus titer in swabs of mice which shed virus ([3]; day 3 after HSV-2 inoc., Zn(OAc)2 concentration not given, value in brackets): (3.42) log PFU/ml
- Nv/Nt, swabs with virus/total swabs ([3]; day 4 after HSV-2 inoc., Zn(OAc)2 concentration not given): 1/9
- Mean virus titer in swabs of mice which shed virus ([3]; day 4 after HSV-2 inoc., Zn(OAc)2 concentration not given, value in brackets): (4.54) log PFU/ml
- Nv/Nt, swabs with virus/total swabs ([3]; day 7 after HSV-2 inoc., Zn(OAc)2 concentration not given): 0/8
- %S (percent survivors) [4, 24]: 79%
- MDD (mean day of death) [4, 24]: 3.0 days
- deaths ([4]; 8.0 x 10^3 PFU, two of the three deaths on day 4, probably not virus related): 21.4%
- %S (percent survivors) [4, 25]: 71%
- MDD (mean day of death) [4, 25]: 8.3 days
- deaths ([4]; 8.0 x 10^4 PFU): 50%
- mice protected from lethal infection ([4]; second study, 8.0 x 10^4 PFU in 0.1 ml, positive control, concentration not given, 10 mice): 80%
